Experimental data: US4425356A, “Lankacidin derivatives used in swine husbandry” (Takeda Chemical Industries, Ltd., priority 1980, dated 1984)
Values after ≈ are worked out from the molar mass of the structure shown. Where two headings read alike, the source gives them in different places.

Experiments:
[1] = test system: Treponema hyodysenteriae; experiment: in vitro antibacterial activity (MIC, agar dilution method), Test Examples 1-3; type: cell-based; conditions: for MIC: Brachyspira hyodysenteriae, 48 h; for MIC / Minimum Inhibitory Concentration: 37° C., 2 days, anaerobic
Protocol: Several agents were tested for in vitro antibacterial activity against Treponema hyodysenteriae, the pathogenic bacteria causing swine dysentery, by the method of testing drug sensitivity of Treponema hyodysenteriae (Kashiwazaki et al. Abstracts of Papers presented at the 82nd Meeting of the Japanese Society of Veterinary Science, page 101, 1976).
(1) Strains: These strains belong to Treponema hyodysenteriae isolated
from the bloody mucous faeces of dysenteric pigs in Japan.
(2) Antimicrobial activity assay: Agar dilution method
(3) Inoculum size: A loopful of bacterial suspension (10^6 CFU/ml)
(4) Cultural conditions: GasPak anaerobic system (BBL), 37° C., 2
Typical agents among compound (I) were tested for in vitro antibacterial activity by the same method as in Test Example 1.
The experimental conditions are the same as in Test Example 1 (Table 1).
Agents of compound (I) were tested for in vitro antibacterial activity by the same method as in Test Example 1.

[2] = test system: Treponema hyodysenteriae; experiment: efficacy in experimental infection in mice with swine dysentery, Test Example 4; type: in vivo; conditions: 5 mg/kg/day oral, day 1 to day 4; seven days after infection
Protocol: Lankacidin A, lankacidin C, lankacidin C 8-acetate, lankacidin C 14-propionate, lankacidinol A and lankacidinol were tested for efficacy against swine dysentery in experimental infection in mice with swine dysentery.
The similar experimental infection model of swine dysentery in mice as that described, for example, by Joens et al. in Infection and Immunity, 25, 757-760 (1979), American Journal of Veterinary Research, 41, 1225-1226 (1980) and Veterinary Record, 107, 527-529 (1980) was used. Thus, a field isolate of Treponema hyodysenteriae anaerobically cultivated on the 5% defibrinated horse blood added Trypticase soy agar (BBL) plate was mashed together with the culture medium and diluted two-fold with Trypticase soy broth (BBL). Mice were inoculated intragastrically with this infecting dilution. Each test agent was suspended in 5% gum arabic solution and forcibly administered orally from day 1 to day 4 following infection. Seven days after infection, the cecum was examined for lesions, and the cecum was mashed together with the contents and subjected to Treponema hyodysenteriae counting. Excellent efficacy was produced in each of the drug-administered groups.

CC(=O)OC1C=CC(C)=CCC(O)C=CC(C)=CC(NC(=O)C(C)=O)C2(C)C(=O)OC(C1)C(C)C2=O (stereo not drawn) [Lankacidin A, lankacidin A]
MIC ([1]; strain 78/A, read-out: Minimum Inhibitory Concentration): 3.13 µg/mL (≈ 6.24 µM) | MIC ([1]; strain CD1 (CD-1), read-out: Minimum Inhibitory Concentration): 6.25 µg/mL (≈ 12.5 µM) | MIC ([1]; strain DJ70P1, read-out: Minimum Inhibitory Concentration): 6.25 µg/mL (≈ 12.5 µM) | MIC ([1]; strain MK-2, read-out: Minimum Inhibitory Concentration): 3.13 µg/mL (≈ 6.24 µM) | Minimum Inhibitory Concentration ([1]; strain DJ70P1): 3.13 µg/mL | Minimum Inhibitory Concentration ([1]; strain MK-2): 6.25 µg/mL | Number of mice from which the pathogen was detected/number of mice tested [2]: 1/5 | Number of mice with cecal lesions/number of mice tested [2]: 0/5

CC(=O)C(=O)NC1C=C(C)C=CC(O)CC=C(C)C=CC(O)CC2OC(=O)C1(C)C(=O)C2C (stereo not drawn) [Lankacidin C, lankacidin C]
MIC ([1]; read-out: Minimum Inhibitory Concentration, strain DJ70P1): 3.13 µg/mL (≈ 6.81 µM) | in vitro antibacterial activity (in words) ([1]; against Treponema hyodysenteriae): strong antibacterial activity | Number of mice from which the pathogen was detected/number of mice tested [2]: 1/5 | Number of mice with cecal lesions/number of mice tested [2]: 0/5
